The text below walks through data of US10201530B2, “Treatment of BRCA1-defective cancer or resistant cancers” (City of Hope, priority 2014, dated 2019).

Each structure is given as a SMILES string. Some results are limits rather than exact numbers.

For test [1], the system named is KB-Gem. Put plainly: Cytotoxicity, KB-Gem cells. In kind it is cell-based, human. To be noted: Homo sapiens, gemcitabine-resistant, read-out: IC50, mean ± SEM. Here is the method:
(§1) All cell lines were acquired from the American Type Culture Collection (Manassas, Va., USA). Cells were maintained in RPMI 1640 medium (Mediatech) with 10% fetal bovine serum, 2 mM glutamine, and 100 U of penicillin and 100 μg of streptomycin per ml of medium (Sigma) at 37° C. in 5% CO2. To isolate HCC1437+BRCA1 cells, parental HCC1937 cells were transfected with pcDNA3.1 plasmid expressing full-length BRCA1 cDNA. Stable transfectant clones were selected and used for drug sensitivity assays. For stable transfection, cells at 30-40% confluence were incubated overnight with […] of plasmid DNA, using FUGENE® 6 transfectin reagent (Roche Molecular Biochemical, Monza, Italy) according to the manufacturer's instructions. Cells were then selected in puromycin (1 μg/ml) (Invitrogen life Technologies, La Jolla, Calif., USA.) After 20 to 30 days, viable puromycin-resistant colonies from HCC1937 transfections were expanded and screened. The clones that stably expressed […] and retained growth potential were assayed for BRCA1 expression by Western blot analysis. By Western blot analysis, we evaluated the restoration of BRCA1 expression in the puromycin-resistant cDNA/transfectant cells.
(§2) The MTT cytotoxicity assay was performed by incubating with MTT and monitoring the MTT formazan formed by viable cells with a microplate reader at a wavelength of 560 nm; the survival, ratio was determined using the formula: (Atest−Ablank)/(Acontrol−Ablank)×100%. The cytotoxicity was determined in 96-well plates using the semiautomatic fluorescence-based Digital Imaging Microscopy System (DIMSCAN). DIMSCAN uses digital imaging microscopy to quantify viable cells, which selectively accumulate FDA (fluorescein diacetate; Alfa Aesar, Ward Hill, Mass.). DIMSCAN is capable of measuring cytotoxicity over a 4 log dynamic range by quantifying total fluorescence per well (which is proportional to the number of viable cells) after elimination of the background fluorescence by digital thresholding and eosin Y (Mallinckrodt Baker, Center Valley, Pa.) quenching. Cells were seeded into 96-well plates in 100 μL of complete medium at 2,000 to 5,000 cells per well depending on cell line growth rate. After overnight incubation, test compound was added to each well at various concentrations in 50 μL of culture medium. After incubation with the drugs for 96 hours at 37° C., FDA (final concentration: 10 mg/mL) and eosin Y [final concentration: 0.1% (w/v)] were added to each well and the cells were incubated for an additional 20 minutes at 37° C. Total fluorescence per well was then measured using DIMSCAN, and the results were expressed as the ratio of the fluorescence in treated wells to the fluorescence in untreated wells (survival fraction).

Test [2] concerns A2780-DDDP. In words: Cytotoxicity, A2780-DDDP cells. In kind it is cell-based, human. Particulars: Homo sapiens, cisplatin-resistant ovarian cells, read-out: IC50, mean ± SEM. On the procedure:
as §1, §2

The subject of test [3] is HCC1937. In words: Cytotoxicity, HCC1937 cells. In kind it is cell-based, human. Particulars: Homo sapiens; HCC1937, triple negative, BRCA1 mutant; COH29 72 h. Here is the method:
as §1
The MTT cytotoxicity assay was performed by incubating with MTT and monitoring the MTT formazan formed by viable cells with a microplate reader at a wavelength of 560 nm; the survival, ratio was determined using the formula: (Atest−Ablank)/(Acontrol−Ablank)×100%. The cytotoxicity was determined in 96-well plates using the semiautomatic fluorescence-based Digital Imaging Microscopy System (DIMSCAN). DIMSCAN uses digital imaging microscopy to quantify viable cells, which selectively accumulate FDA (fluorescein diacetate; Alfa Aesar, Ward Hill, Mass.). DIMSCAN is capable of measuring cytotoxicity over a 4 log dynamic range by quantifying total fluorescence per well (which is proportional to the number of viable cells) after elimination of the background fluorescence by digital thresholding and eosin Y (Mallinckrodt Baker, Center Valley, Pa.) quenching. […]

For test [4], the target named is T1, PARP1 (Homo sapiens, UniProt P09874).
T1 construct: endogenous in cells; host or cells: HCC1937, HCC1937+BRCA1, UWB1.289, UWB1.289+BRCA1 (human breast / ovarian cancer lines)
T1 sequence (P09874 whole entry): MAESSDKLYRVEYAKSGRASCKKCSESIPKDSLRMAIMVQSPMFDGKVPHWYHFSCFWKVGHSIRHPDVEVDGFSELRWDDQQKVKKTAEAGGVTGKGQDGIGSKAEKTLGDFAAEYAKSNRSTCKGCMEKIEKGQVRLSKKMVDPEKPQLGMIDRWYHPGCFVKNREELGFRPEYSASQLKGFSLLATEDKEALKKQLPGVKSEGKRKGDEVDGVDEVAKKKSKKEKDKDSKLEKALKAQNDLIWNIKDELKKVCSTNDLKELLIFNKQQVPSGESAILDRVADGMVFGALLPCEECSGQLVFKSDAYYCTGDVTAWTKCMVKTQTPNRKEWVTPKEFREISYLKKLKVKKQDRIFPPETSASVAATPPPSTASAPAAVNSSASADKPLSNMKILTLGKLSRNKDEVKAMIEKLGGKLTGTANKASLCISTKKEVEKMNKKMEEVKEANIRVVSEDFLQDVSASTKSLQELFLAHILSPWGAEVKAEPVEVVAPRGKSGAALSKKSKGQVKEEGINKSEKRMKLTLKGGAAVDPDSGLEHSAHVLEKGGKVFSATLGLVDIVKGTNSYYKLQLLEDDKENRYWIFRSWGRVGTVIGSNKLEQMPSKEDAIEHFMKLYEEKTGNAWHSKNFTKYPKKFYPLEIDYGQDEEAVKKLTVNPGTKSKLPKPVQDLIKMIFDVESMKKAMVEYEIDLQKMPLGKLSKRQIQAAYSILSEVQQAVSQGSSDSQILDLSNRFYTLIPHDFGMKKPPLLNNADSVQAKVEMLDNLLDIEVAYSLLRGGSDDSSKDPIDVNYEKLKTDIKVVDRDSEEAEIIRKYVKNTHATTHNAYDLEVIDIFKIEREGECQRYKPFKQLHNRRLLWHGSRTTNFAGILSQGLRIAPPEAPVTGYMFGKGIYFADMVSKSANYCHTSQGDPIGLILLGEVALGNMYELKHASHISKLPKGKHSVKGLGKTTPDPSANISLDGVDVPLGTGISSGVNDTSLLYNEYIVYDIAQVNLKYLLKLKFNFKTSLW
In words: PARP1 activity in lysates of treated cells (chemiluminescent assay kit). In kind it is cell-based. Here is the method: The PARP1 activity was determined using the PARP1 Chemiluminscent Assay Kit (BPS Bioscience, San Diego) according to the manufacturer's protocol. Briefly, the ribosylation reaction was carried out with activated DNA in PARP assay buffer using test inhibitor, positive control, substrate control and blank reactions, for 1 hour at 25° C. Detection was by streptavidin-HRP with chemiluminescent substrate A and B read in a luminometer.

For test [5], the system named is OVCAR-3. Put plainly: Cytotoxicity, OVCAR-3 cells. In kind it is cell-based, human. To be noted: Homo sapiens, read-out: IC50, mean ± SEM. On the procedure: as §1, §2
In test [6] the test system is UWB1.289. In words: Cytotoxicity, UWB1.289 cells. In kind it is cell-based, human. Particulars: Homo sapiens, UWB1289; UWB1.289, BRCA1-defective ovarian cancer cells; COH29 72 h; read-out: IC50, mean ± SEM. Here is the method:
as §1
as §2, with “After incubation with the drugs for 96 hours at 37° C., FDA (final concentration: 10 mg/mL) and eosin Y [final concentration: 0.1% (w/v)] were added to each well and the cells were incubated for an additional 20 minutes at 37° C.” left out

Test [7] deals with HCC1937 tumors. In words: Orthotopic tumor explant model, HCC1937. It is filed as in vivo. Particulars: HCC1937 tumors in mammary fat pads of NSG mice, daily oral 400 mg/kg, 28 days. On the procedure:
Experiments in mice were conducted under a protocol approved by the IACUC of City of Hope. Because HCC1937 and HCC1937+BRCA1 cells from slow-growing tumors, they were implanted using MATRIGEL™ (Becton-Dickinson Biosciences). To establish tumors 4×10^6 cells in 200 μL serum-free medium containing 50% MATRIGEL™ were injected into the mammary fat pads around the inguinal area of a pair of 8 week old female NSG mice. Once the initial tenors reached 13 mm in diameter, they were dissected out minced into 3 mm pieces and implanted into the inguinal area of the mammary fat pads of the experimental mice Tumors were measured over a 28-day period, and for each time point, the student t-test was used to determine the statistical significance between daily gavage with 400 mg/kg COH29 in 30% solutol and corresponding vehicle control. The p value less than 0.05 (2 sides) was considered to indicate statistical significance

Test [8] relates to multiple human cancer cell lines. To be noted: in most cases; cited from earlier work.
The subject of test [9] is TOV112D. Put plainly: Cytotoxicity, TOV112D cells. In kind it is cell-based, human. Particulars: Homo sapiens, read-out: IC50, mean ± SEM. On the procedure:
as §1, §2

As a reminder, the IC50 is the concentration needed to halve the response being measured. In the case of `O=C(Nc1nc(-c2ccc(O)c(O)c2)c(-c2ccccc2)s1)c1ccc(O)c(O)c1` [COH29], the half-inhibitory concentration (IC50) in [1] is 7.5 ± 0.29 µM; in test [2] it was 6.47 ± 1.41 µM; in test [3], 7.25 ± 0.64 µM; in [5] it was 20.5 ± 0.81 µM; in [6], 12.3 ± 1.15 µM; in test [8], under 10 µM. The IC50 in [9] came to 16 ± 2.08 µM. The “PARP1 activity, treated cells” value in test [4] (HCC1937+BRCA1, 24 h, untreated 2336878 cps) is reported as 2041097 cps; in test [4] (HCC1937, 24 h, untreated 726177 cps) it was 427851 cps; in test [4] (UWB1.289+BRCA1, 8 h, untreated printed 145769 cps) it was 2129944 cps; in test [4] (UWB1.289, 8 h, untreated printed 113559 cps), 774611 cps. Besides, in test [7], the “growth of tumors compared to vehicle” value was “significantly (p=0.0007) suppressed”.
